# Measurements reported in US10782295B2, “Cysteine-reactive ligand discovery in proteomes” (THE SCRIPPS RESEARCH INSTITUTE, priority 2013, dated 2020).
# How the values were obtained:
# Test in all cases: competitive isoTOP-ABPP, MDA-MB-231 soluble proteome
# Format in all cases: binding
# [1] = biological target: T1, PEF1 (Homo sapiens, UniProt Q9UBV8); conditions: 100 μM LDE, 60 min; peptide QALVNC*NWSSFNDETCLMMINMFDK
# T1 construct: directly in native proteomes; endogenous in cells; host or cells: MDA-MB-231
# T1 sequence (Q9UBV8 1-284): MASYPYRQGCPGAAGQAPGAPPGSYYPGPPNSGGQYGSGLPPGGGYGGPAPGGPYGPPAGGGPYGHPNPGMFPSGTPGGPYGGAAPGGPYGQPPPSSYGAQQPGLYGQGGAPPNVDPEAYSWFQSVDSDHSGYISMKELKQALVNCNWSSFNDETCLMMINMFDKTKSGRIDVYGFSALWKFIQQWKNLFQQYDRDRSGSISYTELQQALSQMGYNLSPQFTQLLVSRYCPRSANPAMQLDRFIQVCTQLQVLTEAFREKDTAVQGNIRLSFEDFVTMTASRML
# Description: (§1) Here, we envisioned that isoTOP-ABPP could be advanced to discover and quantify reactions between cysteines in proteomes and any electrophilic compound. In this advanced, ‘competitive’ version of isoTOP-ABPP (FIG. 1a), a proteome is treated with an electrophile (experimental sample) or DMSO (control sample). Both proteomic samples are then labeled with the IA probe and conjugated by CuAAC to light and heavy azide-biotin tags, respectively. The light and heavy samples are then mixed and subjected to our described isoTOP-ABPP protocol for enrichment, identification, and quantification of IA-labeled cysteines^30. Electrophile-modified cysteines are quantified by measuring the MS1 chromatographic peak ratios (R values) for heavy (DMSO-treated) over light (electrophile-treated) samples, with higher R values reflecting greater sensitivity to the electrophile. In this format, competitive isoTOP-ABPP can assay electrophiles against 1000+ cysteines in parallel directly in native proteomes without requiring any chemical modification to the electrophiles themselves.
# (§2) Competitive isoTOP-ABPP experiments were performed in quadruplicate using the soluble proteome of the human breast cancer cell line MDA-MB-231 cell line. Proteomes were treated with 100 μM HNE, 15d-PGJ2, or 2-HD, for 60 minutes, followed by the IA-probe (100 μM, 60 min) A total of ˜1400 cysteine reactivities were quantified across the aggregate data set, with at least 900 cysteine reactivities quantified for each LDE (FIG. 2a) more than 750 of which were quantified for all the three electrophiles.
# (§3) HNE was purchased from EMD biosciences, 15d-PGJ2 was purchased from Cayman Chemicals and 2-HD was purchased from Santa Cruz Biotechnology. Proteome samples were diluted to a 4 mg protein/mL solution in PBS. For each profiling experiment, one aliquot of the proteome sample (0.5 mL) was treated with 100 μM of LDE using 5 μL of a 10 mM stock and the other aliquot was treated with 5 μL of either ethanol (for HNE and 15d-PGJ2) or DMSO (for 2-HD) as control. For the concentration-dependent profiling experiments using HNE, aliquots of the proteomes (0.5 mL each) were treated with 5, 10, 50, 100 and 500 μM of HNE using 5 μL of 0.5, 1.0, 5, 10 and 50 mM of stock solution, respectively. After 60 minutes of treatment at room temperature, both the LDE-treated and control aliquots were passed through a NAP-5 Sephadex column (GE healthcare) to remove any unreacted LDE. The volume of each aliquot was increased to 1 mL with the concentration at 2 mg/mL after this step.
# (§4) Each of the control and LDE-treated proteome samples (˜2 mg protein/mL in 1 mL volume) was treated with 100 μM of IA-probe using 10 μL of a 10 mM stock in DMSO. The labeling reactions were incubated at room temperature for 1 hour. Click chemistry (acetylene-azide cycloaddition) was performed by the addition of 100 μM of either the Heavy-TEV-Tag (for the control sample) or Light-TEV-Tag (for the LDE-treated sample) (20 μL of a 5 mM stock), 1 mM TCEP (fresh 50× stock in water), 100 μM ligand (17× stock in DMSO:t-Butanol 1:4) and 1 mM CuSO4 (50× stock in water). Samples were allowed to react at room temperature for 1 hour. After the click chemistry step, the light and heavy-labeled samples were mixed together and centrifuged (5900×g, 4 min, 4° C.) to pellet the precipitated proteins.
# (§5) The pellets were washed twice in cold MeOH, after which the pellet was solubilized in PBS containing 1.2% SDS via sonication and heating (5 min, 80° C.). Samples were subjected to streptavidin enrichment of probe-labeled proteins, sequential on-bead trypsin and TEV digestion, and liquid chromatography-mass spectrometry (LC-MS) analysis according to the published isoTOP-ABPP protocol^30.
# (§6) IA-probe labeled peptides were identified by SEQUEST2 and DTASelect3, and the quantification of heavy/light ratios (isoTOP-ABPP ratios, R) was performed by an in-house software (CIMAGE) as previously described. […]
# [2] = biological target: T2, DYNC1L11 (Homo sapiens, UniProt Q9Y6G9); conditions: 100 μM LDE, 60 min; peptide SEQ ID NO: 25 (...NLWSC*ILSEVSTR)
# T2 construct: directly in native proteomes; endogenous in cells; host or cells: MDA-MB-231
# T2 sequence (Q9Y6G9 whole entry): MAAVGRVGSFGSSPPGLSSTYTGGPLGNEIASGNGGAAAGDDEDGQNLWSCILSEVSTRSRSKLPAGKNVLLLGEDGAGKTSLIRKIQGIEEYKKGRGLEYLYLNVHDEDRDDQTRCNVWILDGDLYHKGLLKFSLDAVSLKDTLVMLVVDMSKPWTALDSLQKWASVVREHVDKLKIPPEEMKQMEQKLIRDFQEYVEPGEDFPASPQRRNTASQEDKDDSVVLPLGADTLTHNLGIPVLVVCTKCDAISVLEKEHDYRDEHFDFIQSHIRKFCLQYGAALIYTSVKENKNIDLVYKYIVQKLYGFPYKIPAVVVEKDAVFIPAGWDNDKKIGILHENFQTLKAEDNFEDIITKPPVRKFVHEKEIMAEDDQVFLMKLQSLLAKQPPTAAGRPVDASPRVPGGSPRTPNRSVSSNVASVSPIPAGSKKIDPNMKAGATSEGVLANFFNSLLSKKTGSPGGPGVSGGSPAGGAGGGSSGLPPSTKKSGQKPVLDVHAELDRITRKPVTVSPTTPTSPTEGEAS
# Description: as §1, §2, §3, §4, §5, §6
# [3] = biological target: T3, TNRC5 (Homo sapiens, UniProt Q9BT09); conditions: 100 μM LDE, 60 min; peptide QC*DVLVEEFEEVIEDWYR
# T3 construct: directly in native proteomes; endogenous in cells; host or cells: MDA-MB-231
# T3 sequence (Q9BT09 31-278): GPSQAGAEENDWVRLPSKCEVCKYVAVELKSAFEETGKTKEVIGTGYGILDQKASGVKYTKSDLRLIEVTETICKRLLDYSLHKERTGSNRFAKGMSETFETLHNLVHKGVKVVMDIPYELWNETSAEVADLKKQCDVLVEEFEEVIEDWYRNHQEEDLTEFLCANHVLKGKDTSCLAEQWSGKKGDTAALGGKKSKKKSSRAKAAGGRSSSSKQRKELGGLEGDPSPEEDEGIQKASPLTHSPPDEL
# Description: as §1, §2, §3, §4, §5, §6
# [4] = biological target: T4, IFIT3 (Homo sapiens, UniProt O14879); conditions: 100 μM LDE, 60 min; peptide GLNPLNAYSDLAEFLETEC*YQTPFNK
# T4 construct: directly in native proteomes; endogenous in cells; host or cells: MDA-MB-231
# T4 sequence (O14879 1-490): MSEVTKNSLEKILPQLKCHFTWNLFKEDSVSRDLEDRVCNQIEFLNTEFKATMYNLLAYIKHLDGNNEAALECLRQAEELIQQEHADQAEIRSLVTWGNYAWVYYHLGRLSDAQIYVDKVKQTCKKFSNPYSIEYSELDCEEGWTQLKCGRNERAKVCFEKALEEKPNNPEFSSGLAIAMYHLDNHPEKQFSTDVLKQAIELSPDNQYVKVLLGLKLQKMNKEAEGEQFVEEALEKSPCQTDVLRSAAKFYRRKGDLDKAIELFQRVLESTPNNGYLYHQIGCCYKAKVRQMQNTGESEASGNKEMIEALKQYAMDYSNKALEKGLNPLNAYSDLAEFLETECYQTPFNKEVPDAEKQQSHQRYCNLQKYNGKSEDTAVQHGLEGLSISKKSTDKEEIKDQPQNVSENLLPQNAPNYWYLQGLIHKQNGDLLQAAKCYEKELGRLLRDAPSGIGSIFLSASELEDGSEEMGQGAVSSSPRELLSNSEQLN
# Description: as §1, §2, §3, §4, §5, §6
# [5] = biological target: T5, REEP5 (Homo sapiens, UniProt Q00765); conditions: 100 μM LDE, 60 min; peptide NC*MTDLLAK
# T5 construct: directly in native proteomes; endogenous in cells; host or cells: MDA-MB-231
# T5 sequence (Q00765 whole entry): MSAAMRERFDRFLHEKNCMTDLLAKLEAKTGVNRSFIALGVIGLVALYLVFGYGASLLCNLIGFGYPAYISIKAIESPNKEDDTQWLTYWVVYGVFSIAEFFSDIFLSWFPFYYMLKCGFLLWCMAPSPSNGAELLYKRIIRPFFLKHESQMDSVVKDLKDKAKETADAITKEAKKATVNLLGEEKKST
# Description: as §1, §2, §3, §4, §5, §6
SMILES,R value (isoTOP-ABPP ratio heavy/light) for IA-labeled cysteine of PEF1 [1],R value (isoTOP-ABPP ratio heavy/light) for IA-labeled cysteine of DYNC1L11 [2],R value (isoTOP-ABPP ratio heavy/light) for IA-labeled cysteine of TNRC5 [3],R value (isoTOP-ABPP ratio heavy/light) for IA-labeled cysteine of IFIT3 [4],R value (isoTOP-ABPP ratio heavy/light) for IA-labeled cysteine of REEP5 [5]
"CCCCCCCCCCCCC/C=C/C=O [2-HD, 2-trans-hexadecenal]",1.25,1.1,1.06,1.23,1.18
"CCCCCC(O)/C=C/C=O (stereo not drawn) [4-HNE, 4-Hydroxynonenal]",5.14,2.59,1.29,1.51,7.08
"CCCCC/C=C/C=C1/C(=O)C=C[C@@H]1C/C=C\CCCC(=O)O [PGJ2, 15-deoxy-Δ12,14-prostaglandin J2]",2.9,5.18,11.77,9.43,7.38
